Reference: patent publication US20240254489A1, “COMPOSITIONS AND METHODS OF TARGETING THE PAX6 SIGNALING PATHWAY TO REDUCE FORMATION OF AMYLOID BETA PLAQUES AND NEUROFIBRILLARY TANGLES” (The University of Hong Kong, priority 2021, published 2024)

How the values were obtained:
C/EBPa = conditions: cited from earlier work
293T-Tau cell line = assay: Western blot of CDK4 and Cyclin D1 in 293T-Tau cell line; assay type: cell-based; conditions: 10 nM and 50 nM
Description: (§1) Experiments were designed to test the effect of palbociclib on Tau in vitro and in vivo.

293T-APP cell line = assay: Western blot of CDK4 and Cyclin D1 in 293T-APP cell line; assay type: cell-based; conditions: 10 nM and 50 nM
Description: as §1

5×FAD mice [1] = assay: Immunofluorescence, Western blot and Aβ deposits in brain of palbociclib-treated 5×FAD mice; assay type: in vivo, mouse
Description: (§2) FIG. 9A-9D show effects of palbociclib on 5×FAD mice model. FIGS. 9A and 9B is a series of immunofluorescent images showing expression of cell cycle marker (Cyclin D1) (9A) and Pax6 (9B). […] FIG. 9D is an image of an autoradiogram of a Western blot and the associated quantitative bar graph showing the relative expression of E2F-1, CDK6, c-Myb, APP, Iba1 and LC3B in palbociclib treatment group compared to controls. FIG. 9E is a series of images of brain tissue showing the relative Aβ deposits in palbociclib treated mouse brain tissue compared to controls. FIG. 9F is a series of images of liver, gallbladder and kidney in palbociclib treated mouse. FIGS. 9G-9J show the effect of palbociclib treatment on learning and memory ability of 5×FAD female mice in morris water maze. FIG. 9G is a schematic diagram of palbociclib administration with 60 mg/(kg*d); 10-month-old wild-type mice (WT) and 5×FAD mice were administrated with solvent (ctrl) and 60 mg/kg/day palbociclib (palb) for 2 months via oral garage; Morris water maze with n(WT-ctrl)=5, n(5×FAD-ctrl)=5, n(5×FAD-palb)=3 were performed.
FIGS. 8A-8E show the effects of palbociclib on 5×FAD mice models.
FIGS. 9A-9D show effects of palbociclib on 5×FAD mice model. FIGS. 9A and 9B is a series of immunofluorescent images showing expression of cell cycle marker (Cyclin D1) (9A) and Pax6 (9B). […] FIG. 9D is an image of an autoradiogram of a Western blot and the associated quantitative bar graph showing the relative expression of E2F-1, CDK6, c-Myb, APP, Iba1 and LC3B in palbociclib treatment group compared to controls. FIG. 9E is a series of images of brain tissue showing the relative […] deposits in palbociclib treated mouse brain tissue compared to controls.

5×FAD mice [2] = assay: Morris water maze of palbociclib-treated 5×FAD mice; assay type: in vivo, mouse
Description: as §2
FIGS. 9G-9J show the effect of palbociclib treatment on learning and memory ability of 5×FAD female mice in morris water maze. FIG. 9G is a schematic diagram of palbociclib administration with 60 mg/(kg*d); 10-month-old wild-type mice (WT) and 5×FAD mice were administrated with solvent (ctrl) and 60 mg/kg/day palbociclib (palb) for 2 months via oral garage; Morris water maze with n(WT-ctrl)=5, n(5×FAD-ctrl)=5, n(5×FAD-palb)=3 were performed.

[3] = Images of liver, gallbladder and kidney in palbociclib treated mouse; assay type: in vivo
Description: as §2
FIGS. 9A-9D show effects of palbociclib on 5×FAD mice model. […] FIG. 9D is an image of an autoradiogram of a Western blot and the associated quantitative bar graph showing the relative expression of E2F-1, CDK6, c-Myb, APP, Iba1 and LC3B in palbociclib treatment group compared to controls. […]

cortical neurons = assay: Neuronal survival assay of amyloid β neurotoxicity; assay type: cell-based, mouse; conditions: co-treatment with amyloid β
Procedure: The survival assay of amyloid β neurotoxicity was performed as reported previously^33. At various time periods, neurons were lysed in a cell lysis buffer. Under light microscopy, the numbers of intact nuclei indicating living cells was quantified and expressed relative to the number of cells in the control group without amyloid β treatment.
The brains were dissociated from skulls, meninges removed and cortices isolated. Individual cells were dissociated by incubation with trypsin and DNase (Sigma). Cells were plated on poly-d-lysine (Sigma)-coated 24-well plates at a density of 1.5×10^6 cells/ml in Neurobasal medium (Thermo Fisher Scientific) supplemented with B-27 (Thermo Fisher Scientific), N-2 (Thermo Fisher Scientific), and glutamine (0.5 mM, Thermo Fisher Scientific). Three days after seeding, cultured cells were transfected with siRNAs (60 pmol/24-well) using Lipofactamine 2000 transfection reagent (Thermo Fisher Scientific). Twenty-four hours after transfection, cells were exposed to amyloid β1-42 (5 μM) for the indicated time periods and then processed for subsequent assays. SiRNAs from Santa Cruz are provided as pools consisting of three to five target-specific 19-25 nucleotides siRNAs designed to specifically knockdown the expression of mouse Pax6, c-Myb or E2F1. Silencer Select Pre-designed siRNAs were from Ambion, non-targeting siRNA was used as a negative control. […]

Pax6 and c-Myb = assay: RT-PCR and Western blot of amyloid β-induced Pax6 and c-Myb in cortical neurons; assay type: cell-based, mouse
Procedure: Human brain tissues or mouse cortical neurons were dissolved in ice-cold 1×RIPA buffer (Cell Signaling) with proteinase inhibitor cocktail (Sigma). Proteins were separated on NuPAGE Novex 4-12% Bis-Tris gels (Thermo Fisher Scientific) and transferred to nitrocellulose membranes. Membranes were probed with indicated primary antibodies. The blots were analysed and quantified by densitometry using ImageJ software (Version 1.52t, National Institutes of Health).
Total mRNA was prepared from cell cultures utilizing TRIzol reagent (Thermo Fisher Scientific). Semi-quantitative RT-PCR experiments were performed to examine RNA expression of target genes. Briefly, 2 μg of total RNA was reverse-transcribed using SuperScript First-Strand Synthesis System (Thermo Fisher Scientific). The first-strand cDNA was used as a template. β-actin was used as the normalisation control.
Primary cortical neurons were derived from embryonic day 14.5 (E14.5) C57BL/6 mice^31. The brains were dissociated from skulls, meninges removed and cortices isolated. Individual cells were dissociated by incubation with trypsin and DNase (Sigma). Cells were plated on poly-d-lysine (Sigma)-coated 24-well plates at a density of 1.5×10^6 cells/ml in Neurobasal medium (Thermo Fisher Scientific) supplemented with B-27 (Thermo Fisher Scientific), N-2 (Thermo Fisher Scientific), and glutamine (0.5 mM, Thermo Fisher Scientific). […]

Pax6 promoter = Pax6 promoter luciferase reporter assay in amyloid β-treated cortical neurons; assay type: cell-based, mouse; conditions: co-treatment with amyloid β
Procedure: Cortical neurons were transfected with luciferase reporter constructs three days after plating. After amyloid β treatment, luciferase activity of a target gene was determined using the dual-luciferase reporter assay system (Promega) in a microplate luminometer. Luciferase activity was normalised against Renilla activity for the transfection efficiency using a pRL Renilla luciferase control reporter construct. Next, experiments were designed to investigate whether the upregulation of Pax6 and c-Myb is associated with an increase in transcriptional activation of their targets. Cortical neurons were transfected with a P6CON luciferase reporter construct, which contained three standard Pax6 binding sites^39 to measure Pax6 binding; a luciferase construct containing the Pax6 P1 promoter^40 to measure Pax6 promoter activation; or with a luciferase construct containing c-Myb binding sites to measure c-Myb binding. The same luciferase assays were then performed after amyloid β treatment.

cdks 1, 2, 4 and 7 = conditions: in vitro; cited from earlier work
[4] = 5×FAD female mice, 60 mg/kg/day oral 2 months

COc1ccccc1-n1c(/C=C/c2ccc(O)c(O)c2)nc2ccccc2c1=O [ICCB280]
induction of C/EBPa (C/EBPa): potent inducer

CC(=O)c1c(C)c2cnc(Nc3ccc(N4CCNCC4)cn3)nc2n(C2CCCC2)c1=O [palbociclib]
expression levels of CDK4 and Cyclin D1 (293T-Tau cell line): decreased
expression levels of CDK4 and Cyclin D1 (293T-APP cell line): Decreased
Aβ deposit in brain tissue (5×FAD mice [1]): relative fewer
expression of Pax6 (5×FAD mice [1]): decreased expression
expression of cell cycle marker (Cyclin D1) (5×FAD mice [1]): increased expression
expression of E2F-1 (5×FAD mice [1]; treatment group compared to controls): relative decreased expression
frequency of crossing platform in probe trial (5×FAD mice [2]; [4]): significantly increased
latency to platform in probe trial (5×FAD mice [2]; [4]): significantly improved to the level of the wild type control
memory and learning of 5×FAD mice (5×FAD mice [2]; mouse, in vivo): able to improve memory and learning
side effect (liver, gallbladder and kidney images) [3]: no side effect

CN1CC[C@H](c2c(O)cc(O)c3c(=O)cc(-c4ccccc4Cl)oc23)[C@H](O)C1 [flavopiridol]
amyloid β-induced death of cortical neurons (cortical neurons): protected cortical neurons against amyloid β-induced death
amyloid β-induced upregulation of Pax6 and c-Myb mRNA and protein (Pax6 and c-Myb): significantly blocked
amyloid β-induced activation of the Pax6 promoter (Pax6 promoter): blocked
inhibition of all cdks tested (cdks 1, 2, 4 and 7) (cdks 1, 2, 4 and 7): potent and specific in vitro inhibition
